IC50 data for 3 compounds are collected here from paper PMC4854315, “Discovery of a novel allosteric inhibitor-binding site in ERK5: comparison with the canonical kinase hinge ATP-binding site” (Acta Crystallographica. Section D, Structural Biology, 2016).

A value given as a limit tells only on which side of the number the result lay.

One assay relates to ERK5. On the set-up: method as in Deng et al., 2013. Conditions: Data retrieved from the literature; ref Deng et al., 2013; cited from earlier work.
The next assay deals with T1, recombinant human ERK5 (Homo sapiens, UniProt Q13164).
T1 construct: Catalytically active kinase domain of recombinant human ERK5 enzyme was purchased from Carna Biosciences; purchased Carna Biosciences
Description: TR-FRET (LANCE Ultra) biochemical assay of ERK5 kinase activity. Conditions: TR-FRET enzymatic assay, phosphorylated ERK5; read-out: ERK5 IC50. How it is done:
Catalytically active kinase domain of recombinant human ERK5 enzyme was purchased from Carna Biosciences. […] The inhibitory potency of compounds against ERK5 was evaluated using the LANCE Ultra technology from PerkinElmer according to the manufacturer’s instructions. Briefly, 3 µl of different concentrations of ATP and 100 nM ULight-eIF4E-binding protein 1 (Thr37/46) peptide (Perkin-Elmer catalogue No. TRF0128) were incubated in the presence of serially diluted compound or DMSO control at room temperature in 384-well Greiner white polystyrene assay plates. The reaction was initiated by the addition of 3 µl of 10 nM kinase. The assay buffer consisted of 1 mM DTT, 10 mM MgCl2, 1 mM EGTA, 0.01%(v/v) Tween 20 in 50 mM HEPES pH 7.5. After 60 min incubation, the reaction was stopped by the addition of 6 µl stop/detection reagent mixture consisting of 20 mM EDTA and 4 nM Eu-anti-phospho-eIF4E-binding protein 1 (Thr37/46) antibody (PerkinElmer catalogue No. TRF0216) diluted in detection buffer. The plates were incubated for 1 h before the fluorescence was measured at 615 and 665 nm with an excitation wavelength of 320 nm using an EnVision Multilabel Reader from Perkin-Elmer in time-resolved fluorescence resonance energy transfer (TR-FRET) mode. The calculated signal ratio at 665/615 nm is proportional to the kinase activity. The concentration of compound producing 50% inhibition of the kinase activity (IC50) was calculated by using GraphPad Prism to fit the data to a symmetrical sigmoidal curve.
A general note: TR-FRET usually uses a lanthanide donor and a delayed reading to cut background.

T1 sequence (Q13164 55-347 limits assumed): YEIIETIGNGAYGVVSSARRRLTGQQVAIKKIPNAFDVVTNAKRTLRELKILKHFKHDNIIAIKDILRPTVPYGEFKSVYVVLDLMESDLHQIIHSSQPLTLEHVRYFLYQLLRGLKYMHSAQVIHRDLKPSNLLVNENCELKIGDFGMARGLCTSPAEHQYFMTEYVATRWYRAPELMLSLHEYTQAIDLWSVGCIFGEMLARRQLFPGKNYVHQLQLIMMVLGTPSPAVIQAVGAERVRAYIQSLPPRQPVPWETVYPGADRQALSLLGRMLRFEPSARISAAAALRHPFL

In the case of `COc1cc(C(=O)N2CCC(N3CCN(C)CC3)CC2)ccc1Nc1ncc2c(n1)N(C1CCCC1)c1ccccc1C(=O)N2C` [Compound 1], the IC50 with ERK5 was 0.082 µM. For `CC(C)NC(=O)n1nc(N)nc1Nc1ccc(Cl)cc1` [Compound 4], at recombinant human ERK5, the IC50 was greater than 10 µM. The same measure, in the same setting: for `CC(NC(=O)n1nc(N)nc1Nc1ccc(Cl)cc1)c1ccccc1` (stereo not drawn) [Compound 6] the value was greater than 10 µM.

For orientation: IC50 means the midpoint of a concentration-inhibition curve.
